In brackets after ≈: the same amount, converted by molar mass. Entries after “also recorded” stand apart in the source; their conditions may differ.
What was measured:
[1] = test system: HT-29 human colon adenocarcinoma cells; experiment: MTT growth inhibition, HT-29; assay type: cell-based; details: 144 h, HT-29, MTT, 6 days, read-out: Growth Inhibitory Activity IC50
Description: (§1) Camptothecin was used as a control to test the anti-cancer efficacy of the novel camptothecin analogs of the present invention.
(§2) Murine B16 melanoma cell line was grown in RPMI 1640 medium supplemented with 10% heat-inactivated fetal bovine serum, 2 mM L-glutamine, 50 units/mL penicillin, 50 μg/mL streptomycin, 25 μg/mL gentamicin, 0.75% sodium bicarbonate 10 mM HEPES buffer (pH 7.4), and 0.06 mg/mL AntiPPLO. Murine P388 leukemic cell line and human HT-29 colon adenocarcinoma line were maintained in RPMI 1640 medium supplemented with 10% heat-inactivated fetal bovine serum. […] MCF-7M human breast adenocarcinoma was maintained in IMEM supplemented with 5% non heat-inactivated fetal bovine serum and 1 nM insulin.
(§3) [See "Rapid Colorimetric Assay For Cellular Growth And Survival: Application To Proliferation And Cytotoxicity Assays," J. Immun. Meth. 65:55 (1983)]. The assay utilizes a tetrazolium salt to quantitatively measure mammalian cell survival and proliferation by colorimetric methods. In particular, MTT, a pale yellow compound with minimal absorbance, is incubated with cancerous cells in addition to (or in the absence of) a particular camptothecin analog. Living cells with active mitochondrial enzymes metabolize the MTT into a dark blue/purple formazan product with high absorbance. The exact procedure used to test the camptothecin analogs of the present invention is described below.
(§4) Exponentially growing cells (1-2×10^3 cells, unless specified otherwise) in 0.1 mL medium were seeded on day 0 in a 96-well microtiter plate. On day 1, 0.1 mL aliquots of medium containing graded concentrations of test analogs were added to the cell plates. After incubation at 37° C. in a humidified incubator for 3 days (P388, P388/CPT, B16) or 6 days (HT-29, MCF-7M), the plates were centrifuged briefly and 100 μL of the growth medium was removed. Cell cultures were incubated with 50 μL of 3-(4,5-dimethylthiazol-2-yl)-2,5-diphenyl-tetrazolium bromide [MTT, 1 mg/mL in Dulbecco's phosphate buffered saline (PBS)] for 4 hr at 37° C. The resulting purple formazan precipitate was solubilized with 200 μL of 0.04 N HCl in isopropyl alcohol. Absorbance was monitored in a BioRad Model 3550 Microplate Reader at a test wavelength of 570 nm and a reference wavelength of 630 nm. The absorbance is transferred to a PC 486 computer. The IC50 values were determined by a computer program (EZ-ED50) that fits all of the data to the following four-parameter logistic equation:
(§5) Y=(Amax -Amin)/(1+[X/IC^50 ])^n +Amin
(§6) where Amax is the absorbance of control cells, Amin is the absorbance of cells in the presence of highest agent concentration, IC^50 is the concentration of agent that inhibits the cell growth by 50% of control cells (based on the absorbance) and n is the slope of the curve.

[2] = test system: B16 murine melanoma cells; experiment: MTT growth inhibition, B16; assay type: cell-based; details: Mus musculus, 72 h, 3 days, read-out: Growth Inhibitory Activity IC50
Description: as §1, §2, §3, §4, §5, §6

[3] = test system: P388 murine leukemia cells; experiment: MTT growth inhibition, P388; assay type: cell-based; details: Mus musculus, 72 h, 3 days, read-out: Growth Inhibitory Activity IC50
Description: as §1, §2, §3, §4, §5, §6

[4] = test system: P388/CPT CPT-resistant murine leukemia cells; experiment: MTT growth inhibition, P388/CPT; assay type: cell-based; details: Mus musculus, 72 h, 3 days, read-out: Growth Inhibitory Activity IC50
Description: as §1, §2, §3, §4, §5, §6

murine B16 melanoma = experiment: Murine B16 melanoma model in vivo; design: species or system mouse (B6D2F1); details: for Survivors: 60-day
Description: 1) Murine B16 Melanoma Model
(§7) For the B16 melanoma model, the following procedure was used. B6D2F1 mice receive i.p. inocula of B16 murine melanoma brei prepared from B16 tumors growing s.c. in mice (day 0). […] If dosing information for agents is not available, the maximum tolerated dose (MTD) is determined in initial dose finding experiments in non-tumored mice.
(§8) The mean survival times of all groups are calculated, and results are expressed as mean survival of treated mice/mean survival of control mice (T/C)×100%. A T/C value of 150 means that the mice in the treated group lived 50% longer than those of the control group; this is sometimes referred to as the increase in life span or ILS value.
Mice that survive for 60 days are considered long-term survivors, or cures, in the B16 model. The universally accepted cut-off for activity in this model, which has been for years by the National Cancer Institute, is T/C=125. Conventional use of B16 over the years has set the following levels of activity: T/C<125, no activity, T/C=125-150, weak activity; T/C=150-200, modest activity; T/C=200-300, high activity; T/C>300, with long term survivors; excellent, curative activity.

murine P388 leukemia = experiment: Murine P388 leukemia model in vivo; design: species or system mouse (B6D2F1); details: for Survivors: 30-day
Description: as §7, §8
For the P388 leukemia model, the procedure followed is exactly the same as the aforementioned B16 model. The tumor inoculum is prepared by removing ascited fluid containing P388 cells from tumored B6D2F1 mice, centrifuging the cells, and then resuspending the leukemia cells in saline. Mice receive 1×10^6 P388 cells i.p. on day 0.

tumor cells = experiment: MTT growth inhibition across tumor cell lines (P388, P388/CPT, B16, HT-29, MCF-7M); assay type: cell-based; details: comparison in words
Description: as §3
as §4, with “equation: […]” for “equation:”

Question: With CC[C@@]1(O)C(=O)OCc2c1cc1n(c2=O)Cc2c-1nc1ccccc1c2CO[C@@H]1C=C[C@H](O)[C@@H](CO)O1 [HAR7, 7-[2,3-dideoxy-α-D-erythro-hex-2-enopyranosyl]-oxymethylcamptothecin] as the compound, how does the IC50 [1] read?
Answer: Its IC50 is 0.031 µg/mL (≈ 0.0612 µM).

Question: What about the IC50 [2] of the same compound?
Answer: Its IC50 is 0.173 µg/mL (≈ 0.342 µM).

Question: And the IC50 [3]?
Answer: The IC50 was 0.088 µg/mL (≈ 0.174 µM).

Question: What about the IC50 [4] of the same compound?
Answer: Its IC50 is 18.7 µg/mL (≈ 36.9 µM).

Question: What about the cures (murine B16 melanoma; 20 mg/kg) of the same compound?
Answer: The cures was “no cures”.

Question: What about the “T/C (mean survival treated/control)” value (murine B16 melanoma; 20 mg/kg i.p. daily×5) of the same compound?
Answer: The value was 191%.

Question: And the “Tox Deaths” value (murine B16 melanoma; 20 mg/kg i.p. daily×5)?
Answer: The value was 0/10.

Question: What about the “ΔWeight (%)” value (murine B16 melanoma; 20 mg/kg i.p. daily×5) of the same compound?
Answer: The value was -0.1%.

Question: What about the Survivors (murine B16 melanoma; 20 mg/kg i.p. daily×5) of the same compound?
Answer: Its Survivors is 0/10.

Question: And the “T/C (mean survival treated/control)” value (murine B16 melanoma; 40 mg/kg i.p. daily×5)?
Answer: The value was 205%.

Question: And the “Tox Deaths” value (murine B16 melanoma; 40 mg/kg i.p. daily×5)?
Answer: Its value is 0/10.

Question: What about the “ΔWeight (%)” value (murine B16 melanoma; 40 mg/kg i.p. daily×5) of the same compound?
Answer: Its value is -7.9%.

Question: And the Survivors (murine B16 melanoma; 40 mg/kg i.p. daily×5)?
Answer: The Survivors was 1/10.

Question: What about the 60-day survivors (murine B16 melanoma; dose not stated) of the same compound?
Answer: Its 60-day survivors is “one”.

Question: What about the “T/C (mean survival treated/control)” value (murine P388 leukemia; 20 mg/kg i.p. daily×5) of the same compound?
Answer: Its value is 192%.

Question: And the “Tox Deaths” value (murine P388 leukemia; 20 mg/kg i.p. daily×5)?
Answer: Its value is 0/10.

Question: And the “ΔWeight (%)” value (murine P388 leukemia; 20 mg/kg i.p. daily×5)?
Answer: The value was -1.7%.

Question: What about the Survivors (murine P388 leukemia; 20 mg/kg i.p. daily×5) of the same compound?
Answer: Its Survivors is 0/10.

Question: What about the “T/C (mean survival treated/control)” value (murine P388 leukemia; 40 mg/kg i.p. daily×5) of the same compound?
Answer: Its value is 223%.

Question: And the “Tox Deaths” value (murine P388 leukemia; 40 mg/kg i.p. daily×5)?
Answer: The value was 0/10.

Question: What about the “ΔWeight (%)” value (murine P388 leukemia; 40 mg/kg i.p. daily×5) of the same compound?
Answer: The value was -16.0%.

Question: What about the Survivors (murine P388 leukemia; 40 mg/kg i.p. daily×5) of the same compound?
Answer: The Survivors was 3/10.

Question: What about the 30-day survivors (murine P388 leukemia; 40 mg/kg, high dose) of the same compound?
Answer: Its 30-day survivors is “three”.

Question: What about the toxic deaths (murine P388 leukemia; at the high dose) of the same compound?
Answer: The toxic deaths was “no toxic deaths occurred”.

Question: And the weight loss (murine P388 leukemia; at the high dose (MTD))?
Answer: The weight loss was 12%-16.

Question: What about the “efficacy vs P388 leukemia” value (murine P388 leukemia; i.p. five day schedule, in words) of the same compound?
Answer: Its value is “high, curative efficacy; also recorded: excellent activity vs. P388”.

Question: What about the growth inhibitory activity (tumor cells) of the same compound?
Answer: The growth inhibitory activity was “quite similar to those of camptothecin”.

From patent US5932709A (University of Michigan, priority 1997, dated 1999)
